Reference: PubChem BioAssay (NCI)
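The compound was tested at five concentrations on cells cultured in 96-well plates, with a 48-hour exposure period. TGI: total growth inhibition.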

Legend:
Assay in all cases: DTP human tumour cell line panel, 48 h
[1] = system: UACC-62 melanoma
[2] = system: ACHN renal
[3] = system: SNB-75 CNS
[4] = system: SK-MEL-5 melanoma
[5] = system: A549 NSCLC
[6] = system: NCI-H460 lung
[7] = system: PC-3 prostate
[8] = system: CAKI-1 renal
[9] = system: HS 578T breast

Structure (SMILES)	TGI [1]	TGI [2]	TGI [3]	TGI [4]	TGI [5]	TGI [6]	TGI [7]	TGI [8]	TGI [9]
COCOc1ccc(C(=O)C(C)c2ccc(OCOC)cc2OCOC)c(O)c1 (stereo not given)	> 100 µM	> 100 µM	> 100 µM	> 100 µM	> 100 µM	> 100 µM	> 100 µM	> 100 µM	–
CCOC(=O)CCCn1nnc(C(=O)OCC)c1C(=O)OCC	> 100 µM	> 100 µM	> 100 µM	> 100 µM	> 100 µM	> 100 µM	> 100 µM	> 100 µM	> 100 µM
C=CCC1(O)c2ccccc2C(=O)c2c(O)ccc(O)c21 (stereo not given)	20.3 µM	46.3 µM	25.3 µM	23.1 µM	> 87.3 µM	18.3 µM	35.5 µM	50.7 µM	21.9 µM
C=C(C)[C@@]1(O)O[C@H]2C[C@@]3(C)OC(=CC3=O)/C(C)=C\[C@@H]3OC(=O)[C@@]1(C)[C@H]32	35.7 µM	> 77.1 µM	68.3 µM	30.5 µM	> 93.3 µM	> 76.8 µM	78.4 µM	42.9 µM	> 100 µM
CN(C)CCNc1ccc(C(=O)NCCCN(C)CCCNC(=O)c2ccc(NCCN(C)C)c3c(=O)c4ccccc4[nH]c23)c2[nH]c3ccccc3c(=O)c12	0.776 µM	6.24 µM	–	1.06 µM	0.318 µM	1.43 µM	3.44 µM	31.8 µM	1.75 µM
CC1(C)O[C@H]2Cn3c(c(C#N)c4ccccc43)[C@H]2O1	> 100 µM	> 100 µM	> 100 µM	> 100 µM	> 100 µM	> 100 µM	–	> 100 µM	> 100 µM
O=C(COc1ccc(OCC(=O)N2C(=O)CC(=O)N(c3ccccc3)C2=S)cc1)N1C(=O)CC(=O)N(c2ccccc2)C1=S	> 100 µM	> 100 µM	> 100 µM	–	> 100 µM	> 100 µM	> 100 µM	> 100 µM	–
Clc1ccc2c(SCC3CO3)c3ccccc3nc2c1 (stereo not given)	> 100 µM	4.55 µM	60.5 µM	9.07 µM	20.3 µM	20.9 µM	6.86 µM	2.88 µM	–
CC1=NN(C(=O)CSc2nnc(SCC(=O)N3N=C(C)CC3(O)c3ccccc3)s2)C(O)(c2ccccc2)C1 (stereo not given)	56.3 µM	> 100 µM	–	> 100 µM	> 100 µM	> 100 µM	> 100 µM	> 100 µM	70.2 µM
COc1cc(/C=C/C(=O)OCC23CC[C@@]4(C(=O)O)CCC(C)[C@H](C)C4C2=CCC2[C@@]4(C)CC[C@H](O)C(C)(C)C4CC[C@]23C)ccc1O (stereo not given in full)	41.9 µM	8.24 µM	–	32.9 µM	22.6 µM	27.6 µM	41.5 µM	> 100 µM	17.1 µM
CO/C(=N\N=C\c1cc(OC)ccc1OC)c1ccncc1	–	> 10 µM	> 10 µM	> 10 µM	> 10 µM	> 10 µM	> 10 µM	–	–
O=C(Cc1ccccc1)NCCc1ccc(O)c(O)c1	> 100 µM	> 100 µM	> 100 µM	> 100 µM	> 100 µM	> 100 µM	> 100 µM	–	> 100 µM
CN1C/C(=C\c2cccs2)C2=NC(=S)NC(c3cccs3)C2C1 (stereo not given)	> 100 µM	> 100 µM	–	> 100 µM	> 100 µM	> 100 µM	> 100 µM	> 100 µM	> 100 µM
CC(=O)NC1C(OCc2ccccc2)OC(CO)C(O)C1OCC(=O)NC(C)C(=O)NC(CCC(=O)NCCCCNc1ccc([N+](=O)[O-])c2[nH]c3ccccc3c(=O)c12)C(N)=O (stereo not given)	–	> 100 µM	> 100 µM	–	> 100 µM	> 100 µM	> 100 µM	> 100 µM	75.2 µM
CCC(C)[C@@H](NCc1ccccc1)[C@H](OCc1ccccc1)[C@@H]1COC(C)(C)O1 (stereo not given in full)	42.3 µM	49.7 µM	> 100 µM	29 µM	78.8 µM	–	> 100 µM	–	70.7 µM
O=C1N[C@H]2c3c(Cl)sc(Cl)c3/C(=N/O)[C@H]2O1	> 100 µM	> 100 µM	> 100 µM	> 100 µM	> 100 µM	> 100 µM	> 100 µM	> 100 µM	–
Cc1nc2c(=S)[nH]ncc2[nH]1	> 100 µM	> 100 µM	> 100 µM	> 100 µM	> 100 µM	–	> 100 µM	> 100 µM	–
CNC(=O)c1ccccc1-[s+]1c2ccccc2c(=O)n1C (stereo not given)	> 100 µM	> 100 µM	–	> 100 µM	> 100 µM	–	> 100 µM	> 100 µM	> 100 µM
